Experimental data taken from PMC7179167 (Molecules, 2020).
Like-named read-outs stand apart in the source and are kept apart here.

How the values were obtained:
[1] = tested on: B. subtilis (ATCC 6633); assay: Disk diffusion antimicrobial test, B. subtilis; assay type: cell-based, Bacillus subtilis; conditions: Bacillus subtilis, ATCC6633, Gram-positive, 20 mg per disc (title), concentration 20 µg (footnote)
Method: (§1) The newly synthesized compounds were chosen to be evaluated in vitro towards a variety of pathogenic microorganisms; Gram-positive bacteria: S. aureus (ATCC 6538) and B. subtilis (ATCC 6633); Gram-negative bacteria: P. areuginosa (ATCC 27853) and E. coli (DSMZ 1058); yeast: C. albicans (ATCC 10231) and S. cerevisiae (ATCC 9080) and fungi: A. niger (NRRL A-326) using the disk diffusion method at a single dose of 20 µl. The results are shown in Table 1 as the growth inhibition zone (mm).
(§2) The antimicrobial activity of target compounds were evaluated to be in vitro against a variety of pathogenic microorganisms, namely Staphylococcus aureus (ATCC 6538), Bacillus subtilis (ATCC 6633) (Gram-positive bacteria), Pseudomonas areuginosa (ATCC 27853), Escherichia coli (DSMZ 1058) (Gram-negative bacteria), Candida albicans (ATCC 10231), Saccharomyces cerevisiae (ATCC 9080) (Yeast) and Aspergillus niger (NRRL A-326) (Fungi) using the disk diffusion method at a single dose of 20 µg. The microorganisms were served and obtained from the Microbial Biotechnology Department, National Research Center, Giza, Egypt. Amphotericin, amoxicillin and ciprofloxacin were used as reference drugs (Oxoid™ Disks). The tested compounds 11a–c, 12a–c, 13a–i, 14a–i and 15a,b were dissolved in dimethylsulphoxide (DMSO) at a concentration of 1 mg/mL. Aliquots of 20 μl were soaked on filter paper discs (6 mm) and dried at room temperature under sterilized conditions. The paper discs were placed on inoculated agar plats and then incubated for 24 h at 37 °C for bacterial strains and after 48–72 h incubation at 30 °C for fungi. Both bacterial and yeast strains were grown on nutrient agar medium (g/l): beef extract, 3; peptone, 10 and agar, 20 at pH of 7.2. The fungal strain was grown on Czapek-Dox medium (g/l): sucrose, 30; NaNO3, 3; MgSO4.7H2O, 0.5l; KCl, 0.5; FeSO4, 0.01; K2HPO4, 1 and agar, 20 at pH of 6.0.

[2] = tested on: A. niger (NRRL A-326); assay: Disk diffusion antimicrobial test, A. niger; assay type: cell-based; conditions: Aspergillus niger, fungi, 20 mg per disc (title), concentration 20 µg (footnote)
Method: as §1, §2

[3] = tested on: S. aureus (ATCC 6538); assay: Disk diffusion antimicrobial test, S. aureus; assay type: cell-based, Staphylococcus aureus; conditions: Staphylococcus aureus, ATCC6538, Gram-positive, 20 mg per disc (title), concentration 20 µg (footnote)
Method: as §1, §2

[4] = tested on: C. albicans (ATCC 10231); assay: Disk diffusion antimicrobial test, C. albicans; assay type: cell-based, Candida albicans; conditions: Candida albicans, ATCC10231, disk diffusion; yeast; 20 mg per disc (title), concentration 20 µg (footnote)
Method: as §1, §2

[5] = tested on: P. aeruginosa (ATCC 27853); assay: Disk diffusion antimicrobial test, P. aeruginosa; assay type: cell-based, Pseudomonas areuginosa; conditions: Pseudomonas aeruginosa, ATCC27853, Gram-negative, 20 mg per disc (title), concentration 20 µg (footnote)
Method: as §1, §2

[6] = DPPH free radical scavenging assay; assay type: biochemical; conditions: concentration of 20µg/l, mean ± SD of three experiments
Procedure, shortened: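 Compound DMSO stock (1 mg/mL) added to fresh DPPH in DMSO (20 mg/L), vortexed 1 min, kept dark for 15–60 min. Absorbance at 517 nm; % scavenging = (A control − A sample)/A control × 100; triplicates averaged. Ascorbic acid served as reference.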

[7] = tested on: E. coli (DSMZ 1058); assay: Disk diffusion antimicrobial test, E. coli; assay type: cell-based; conditions: Escherichia coli, DSMZ1058, Gram-negative, 20 mg per disc (title), concentration 20 µg (footnote)
Method: as §1
The antimicrobial activity of target compounds were evaluated to be in vitro against a variety of pathogenic microorganisms, namely Staphylococcus aureus (ATCC 6538), Bacillus subtilis (ATCC 6633) (Gram-positive bacteria), Pseudomonas areuginosa (ATCC 27853), Escherichia coli (DSMZ 1058) (Gram-negative bacteria), Candida albicans (ATCC 10231), Saccharomyces cerevisiae (ATCC 9080) (Yeast) and Aspergillus niger (NRRL A-326) (Fungi) using the disk diffusion method at a single dose of 20 µg. The microorganisms were served and obtained from the Microbial Biotechnology Department, National Research Center, Giza, Egypt. Amphotericin, amoxicillin and ciprofloxacin were used as reference drugs (Oxoid™ Disks). The tested compounds 11a–c, 12a–c, 13a–i, 14a–i and 15a,b were dissolved in dimethylsulphoxide (DMSO) at a concentration of 1 mg/mL. […]

Work on `COc1c(-c2cnc3ccccc3c2C(=O)O)c(O)cc2occc12` [Compound 15a, 3-(6-Hydroxy-4-methoxybenzofuran-5-yl)quinoline-4-carboxylic acid] yielded a zone of inhibition at 20 µg/disc [1] of 16 mm, a zone of inhibition at 20 µg/disc [2] of 10 mm and a melting point of 217 to 219 °C. The zone of inhibition at 20 µg/disc [3] was 8 mm, the zone of inhibition at 20 µg/disc [4] was 12 mm and the zone of inhibition at 20 µg/disc [5] was 24 mm. It also gave an inhibition ([6]; 15 min, read-out: Scavenging Activity (%) on DPPH radicals at 15 min) of 9.36 ± 1.25%, an inhibition ([6]; 30 min, read-out: Scavenging Activity (%) on DPPH radicals at 30 min) of 14.2 ± 1.61% and an inhibition ([6]; 45 min, read-out: Scavenging Activity (%) on DPPH radicals at 45 min) of 20.4 ± 1.92%. The inhibition ([6]; 60 min, read-out: Scavenging Activity (%) on DPPH radicals at 60 min) was 24.8 ± 2.05%.
Work on `O=C(O)c1cn(C2CC2)c2cc(N3CCNCC3)c(F)cc2c1=O` [Ciprofloxacin, ciprofloxacin, reference compound] yielded a zone of inhibition at 20 µg/disc [7] of 25.8 mm and a zone of inhibition at 20 µg/disc [5] of 30.2 mm.
